We go through 19 compounds from publication PMC6264767 (Molecules, 2011).

The structures appear in SMILES notation. Like-named read-outs stand apart in the source and are kept apart here.

The test system of data set [1] is HEL cell cultures. The conditions noted are these: for MCC (minimum cytotoxic concentration): human.
For data set [2], the system named is HSV-1 (KOS). Nature of the data set: microbe, parasite or virus in culture. The conditions noted are these: Human alphaherpesvirus 1, HEL. Type of data set: cell-based, herpes simplex virus type 1.
Data set [3] relates to HSV-2 (G). Kind of data set: microbe, parasite or virus in culture. The conditions noted are these: Human alphaherpesvirus 2, HEL. Type of data set: cell-based, herpes simplex virus type 2.
The test system of data set [4] is Vesicular stomatitis virus. Nature of the data set: microbe, parasite or virus in culture. It counts as cell-based. The conditions noted are these: HEL, read-out: EC50 Vesicular stomatitis virus.
Data set [5] has as its system Vaccinia virus. Nature of the data set: microbe, parasite or virus in culture. Type of data set: cell-based. The conditions noted are these: Orthopoxvirus vaccinia, HEL.
Data set [6] has as its system HSV-1 TK^− KOS ACV^r. Nature of the data set: microbe, parasite or virus in culture. The conditions noted are these: Human alphaherpesvirus 1, HEL. Type of data set: cell-based, herpes simplex virus-1.
The nature of data set [7]: in vitro. The conditions noted are these: cat.
The subject of data set [8] is Feline Herpes Virus. Kind of data set: organism not typed. It counts as cell-based. The conditions noted are these: CRFK, read-out: EC50 Feline Herpes Virus.
The test system of data set [9] is Feline Corona Virus (FIPV). Nature of the data set: microbe, parasite or virus in culture. Type of data set: cell-based. The conditions noted are these: Alphacoronavirus 1, CRFK, read-out: EC50 Feline Corona Virus (FIPV).
[10] abbreviates: read-out: EC50 HSV-1 TK^− KOS ACV^r.
Setting [11] is: read-out: inhibitory activity against HSV-1 (KOS), one range given for several viruses.
The mark [12] stands for this setting: read-out: inhibitory activity against HSV-2 (G), one range given for several viruses.
Where [13] appears, read: read-out: inhibitory activity against HSV-1 TK^− KOS (ACV^r), one range given for several viruses.

The compound `O=c1oc2ccccc2c(O)c1C(c1ccc(Br)cc1)c1c(O)c2ccccc2oc1=O` registered a melting point of 267.2 °C.

As for `Nc1nc2c(ncn2COCCO)c(=O)[nH]1` [Acyclovir, reference compound], the “MCC (minimum cytotoxic concentration)” value in data set [1] is greater than 250 µM. Also, the EC50 was 0.3 µM in [2] (read-out: EC50 HSV-1 (KOS)); 0.35 µM in data set [3] (read-out: EC50 HSV-2 (G)); greater than 250 µM in data set [4]; greater than 250 µM in data set [5] (read-out: EC50 Vaccinia virus); 20 µM in data set [6] (setting [10]).

With `O=c1[nH]c(=O)n([C@H]2C[C@H](O)[C@@H](CO)O2)cc1/C=C/Br` [Brivudin, (E)-5-(2-bromovinyl)-2’-deoxyuridine, reference compound], the “MCC (minimum cytotoxic concentration)” value in [1] was greater than 250 µM. For the same compound, the EC50 in data set [2] (read-out: EC50 HSV-1 (KOS)) is 0.06 µM; in data set [3] (read-out: EC50 HSV-2 (G)), 182 µM; in data set [4], greater than 250 µM; in [5] (read-out: EC50 Vaccinia virus), 3.2 µM; in [6] (setting [10]), 50 µM.

For the compound `Nc1ccn(C[C@@H](CO)OCP(=O)(O)O)c(=O)n1` [Cidofovir, (S)-1-[3-hydroxy-2-(phosphonyl-methoxy)propyl]cytosine, reference compound], the “MCC (minimum cytotoxic concentration)” value in [1] is greater than 250 µM. Also, the EC50 was 0.9 µM in data set [2] (read-out: EC50 HSV-1 (KOS)); 1.5 µM in [3] (read-out: EC50 HSV-2 (G)); greater than 250 µM in data set [4]; 7.9 µM in data set [5] (read-out: EC50 Vaccinia virus); 1.5 µM in [6] (setting [10]).

`O=c1oc2ccccc2c(O)c1C(c1ccccc1)c1c(O)c2ccccc2oc1=O` [Compound 1, 3,3′-(Benzilidene)-bis-[4-hydroxycoumarin]] registered a CC50 in data set [7] of 43 µM. In addition, the EC50 was found to be 9.1 µM in [8] and 7.5 µM in data set [9].

`O=c1oc2ccccc2c(O)c1C(c1cccc(Br)c1)c1c(O)c2ccccc2oc1=O` [Compound 3, 3,3′-(3-Bromobenzylidene)-bis-[4-hydroxycoumarin]] showed a melting point of 287 °C. Besides, the EC50 in [2] (read-out: EC50 HSV-1 (KOS)) was 9 µM. In data set [2] (setting [11]), the EC50 lay within 9 to 12 µM. For the same compound, the EC50 in data set [3] (read-out: EC50 HSV-2 (G)) was 9 µM. For the same compound, in [3] (setting [12]), the EC50 fell in the range of 9 to 12 µM. Besides, the EC50 in [4] was greater than 20 µM. The EC50 in [5] (read-out: EC50 Vaccinia virus) stood at 11 µM. Further, the EC50 in data set [5] (read-out: inhibitory activity against vaccinia virus, one range given for several viruses) is 9 to 12 µM. Further, the EC50 in data set [6] (setting [10]) was determined as 9 µM. Besides, the EC50 in data set [6] (setting [13]) is 9 to 12 µM.

As to `O=c1oc2ccccc2c(O)c1C(c1ccc(Cl)cc1)c1c(O)c2ccccc2oc1=O` [Compound 4, 3,3’-(4-Chlorobenzylidene)-bis-[4-hydroxycoumarin]], the CC50 in data set [7] is 45 µM. Further, the EC50 came out at 7.6 µM in [8] and 9.1 µM in [9].

As for `COc1ccccc1C(c1c(O)c2ccccc2oc1=O)c1c(O)c2ccccc2oc1=O` [Compound 5, 3,3′-(2-Methoxybenzylidene)bis[4-hydroxycoumarin]], in [7], the CC50 was 36 µM. Further, the EC50 in data set [8] stood at 5 µM; in [9], 7.5 µM.

As for `O=c1oc2ccccc2c(O)c1C(c1ccc(F)cc1)c1c(O)c2ccccc2oc1=O` [Compound 6, 3,3′-(4-Fluorobenzylidene)-bis-[4-hydroxycoumarin]], the melting point was determined as 214.5 °C. This compound registered a CC50 in [7] of 39 µM. Also, in [8], the EC50 stood at 8.1 µM. Also, in data set [9], the EC50 was 7.7 µM.

With `O=c1oc2ccccc2c(O)c1C(c1ccc(C(F)(F)F)cc1)c1c(O)c2ccccc2oc1=O` [Compound 7, 3,3′-(4-Trifluoromethylbenzylidene)-bis-[4-hydroxycoumarin]], the melting point was found to be 271.3 °C. Also, the “MCC (minimum cytotoxic concentration)” value in data set [1] is 20 µM. Besides, the EC50 in [2] (read-out: EC50 HSV-1 (KOS)) was greater than 4 µM. In data set [3] (read-out: EC50 HSV-2 (G)), the EC50 is greater than 4 µM. Also, in data set [4], the EC50 is greater than 4 µM. Moreover, the EC50 in data set [5] (read-out: EC50 Vaccinia virus) is greater than 4 µM. Also, the EC50 in data set [6] (setting [10]) was greater than 4 µM.

With `O=c1oc2ccccc2c(O)c1C(c1ccc([N+](=O)[O-])cc1)c1c(O)c2ccccc2oc1=O` [Compound 8, 3,3′-(4-Nitrobenzylidene)-bis-[4-hydroxycoumarin]], the “MCC (minimum cytotoxic concentration)” value in data set [1] worked out at 100 µM. For the same compound, the EC50 was greater than 20 µM in data set [2] (read-out: EC50 HSV-1 (KOS)); greater than 20 µM in data set [3] (read-out: EC50 HSV-2 (G)); greater than 20 µM in data set [4]; greater than 20 µM in data set [5] (read-out: EC50 Vaccinia virus); 6.9 µM in data set [8]; 8.5 µM in data set [9]. For the same compound, the EC50 in [6] (setting [10]) is greater than 20 µM. Moreover, the CC50 in data set [7] worked out at 41 µM.

With `O=c1oc2ccccc2c(O)c1C(c1ccccc1[N+](=O)[O-])c1c(O)c2ccccc2oc1=O` [Compound 9, 3,3’-(2-Nitrobenzylidene)-bis-[4-hydroxycoumarin]], the melting point turned out to be 202 °C. Besides, the CC50 in [7] was 34 µM. The EC50 in [8] amounted to 14 µM. Also, the EC50 in data set [9] is 8.3 µM.

For `CSc1ccc(C(c2c(O)c3ccccc3oc2=O)c2c(O)c3ccccc3oc2=O)cc1` [Compound 11, 3,3′-(4-Methyltiobenzylidene)-bis-[4-hydroxycoumarin]], the melting point stood at 258.7 °C. Besides, the “MCC (minimum cytotoxic concentration)” value in [1] is 100 µM. Moreover, the EC50 in [2] (read-out: EC50 HSV-1 (KOS)) was greater than 20 µM. Also, the EC50 in data set [3] (read-out: EC50 HSV-2 (G)) is greater than 20 µM. Moreover, the EC50 in [4] is greater than 20 µM. In addition, in data set [5] (read-out: EC50 Vaccinia virus), the EC50 is greater than 20 µM. In [6] (setting [10]), the EC50 is greater than 20 µM.

In the case of `O=c1oc2ccccc2c(O)c1C(c1ccc(O)c(O)c1)c1c(O)c2ccccc2oc1=O` [Compound 13, 3,3′-(3,4-Dihydroxybenzylidene)-bis-[4-hydroxycoumarin]], the melting point worked out at 227.5 °C. Also, the “MCC (minimum cytotoxic concentration)” value in data set [1] is 100 µM. Besides, the EC50 in [2] (read-out: EC50 HSV-1 (KOS)) was greater than 20 µM. Besides, the EC50 in data set [3] (read-out: EC50 HSV-2 (G)) was greater than 20 µM. Also, the EC50 in [4] is greater than 20 µM. The EC50 in data set [5] (read-out: EC50 Vaccinia virus) was greater than 20 µM. Besides, the EC50 in data set [6] (setting [10]) was greater than 20 µM.

For the compound `COc1ccc(OC)c(C(c2c(O)c3ccccc3oc2=O)c2c(O)c3ccccc3oc2=O)c1` [Compound 14, 3,3′-(2,5-Dimethoxybenzylidene)-bis-[4-hydroxycoumarin]], the melting point was found to be 181.6 °C. Also, the “MCC (minimum cytotoxic concentration)” value in [1] is greater than 100 µM. For the same compound, the EC50 in data set [2] (read-out: EC50 HSV-1 (KOS)) was greater than 100 µM. The EC50 in data set [3] (read-out: EC50 HSV-2 (G)) is greater than 100 µM. Besides, in data set [4], the EC50 was greater than 100 µM. Besides, the EC50 in [5] (read-out: EC50 Vaccinia virus) was greater than 100 µM. The EC50 in [6] (setting [10]) was greater than 100 µM.

Compound `COc1cc(C(c2c(O)c3ccccc3oc2=O)c2c(O)c3ccccc3oc2=O)cc([N+](=O)[O-])c1O` [Compound 15, 3,3′-(4-Hydroxy-3-methoxy-5-nitrobenzylidene)-bis-[4-hydroxycoumarin]] showed a melting point of 199.6 °C. Also, the “MCC (minimum cytotoxic concentration)” value in [1] was greater than 100 µM. In addition, the EC50 in data set [2] (read-out: EC50 HSV-1 (KOS)) is greater than 100 µM. Moreover, the EC50 in data set [3] (read-out: EC50 HSV-2 (G)) is greater than 100 µM. For the same compound, in data set [4], the EC50 was greater than 100 µM. Further, the EC50 in data set [5] (read-out: EC50 Vaccinia virus) was greater than 100 µM. In data set [6] (setting [10]), the EC50 was greater than 100 µM.

`O=c1oc2ccccc2c(O)c1C1c2cc([N+](=O)[O-])ccc2Oc2c1c(=O)oc1ccccc21` (stereo not drawn) [Compound 19, 3-[6-Oxo-(1H)-18-nitrobenzopyrano[4,3-b]benzopyran-7-yl]-4-hydroxycoumarin] returned a melting point of 315.7 °C. In addition, in data set [1] (100 µM), the “cytostatic activity at 100 µM” value is recorded as “no cytotostatic activity”. Further, in [1], the “MCC (minimum cytotoxic concentration)” value is greater than 100 µM. Also, the EC50 in [2] (read-out: EC50 HSV-1 (KOS)) turned out to be 50 µM. In addition, the EC50 in data set [2] (setting [11]) was in the range of 45 to 50 µM. Besides, in [3] (read-out: EC50 HSV-2 (G)), the EC50 stood at 45 µM. The EC50 in data set [3] (setting [12]) lay within 45 to 50 µM. Further, the EC50 in data set [4] is greater than 100 µM. Also, the EC50 in data set [5] (read-out: EC50 Vaccinia virus) was greater than 100 µM. Also, the EC50 in data set [6] (setting [10]) is 50 µM. Moreover, the EC50 in data set [6] (setting [13]) was in the range of 45 to 50 µM.

In the case of `COc1cc(OC)c2c(c1)Oc1c(c(=O)oc3ccccc13)C2c1c(O)c2ccccc2oc1=O` (stereo not drawn) [Compound 20, 3-[6-oxo-(1H)-15,17-dimethoxybenzopyrano[4,3-b]benzopyran-7-yl]-4-hydroxycoumarin], the melting point was determined as 287.9 °C. Further, the “MCC (minimum cytotoxic concentration)” value in data set [1] turned out to be 100 µM. Also, the EC50 in data set [2] (read-out: EC50 HSV-1 (KOS)) is greater than 20 µM. Besides, the CC50 in [7] came to 27 µM. In addition, the EC50 in [3] (read-out: EC50 HSV-2 (G)) is greater than 20 µM. The EC50 in [4] was greater than 20 µM. Also, in data set [5] (read-out: EC50 Vaccinia virus), the EC50 is greater than 20 µM. The EC50 in data set [8] was 7.1 µM. Besides, the EC50 in data set [9] is 6.4 µM. In [6] (setting [10]), the EC50 was greater than 20 µM.

Consider `Nc1nc(O)c2ncn(COC(CO)CO)c2n1` [Ganciclovir, 9-[(1,3-dihydroxy-2-propoxy)methyl]guanine, reference compound], for which, in data set [1], the “MCC (minimum cytotoxic concentration)” value was greater than 100 µM. The EC50 in data set [2] (read-out: EC50 HSV-1 (KOS)) was 0.025 µM; in data set [3] (read-out: EC50 HSV-2 (G)), 0.03 µM; in [4], greater than 100 µM; in data set [5] (read-out: EC50 Vaccinia virus), greater than 100 µM; in data set [8] it was 4.9 µM; in [9], greater than 100 µM. The EC50 in [6] (setting [10]) turned out to be 0.1 µM. The same compound had a CC50 in [7] greater than 100 µM.

In general, melting point refers to the temperature of the solid-liquid transition.
